System: Jurkat cells
Conditions: Jurkat cells dyed with 50 μM reagent in PBS; UV 365 nm 10 minutes vs no UV
Experimental: 1 mL of Jurkat cells 3.0×10^6 cells/PBS (−), the Jurkat cells being human leukemia T cell lines, was prepared in a 1.5 mL Eppendorf tube, and centrifuged at 200×g for five minutes. The supernatant was removed, and 1 mL of a 50 μM MeNPOC-biotin-sulfo-NHS ester.Na/PBS solution was added thereto. The mixture was shielded from light by an aluminum foil, and allowed to stand at room temperature for 20 minutes. The mixture was centrifuged at 200×g for five minutes, and the supernatant was removed. The residue was resuspended in 1 mL of PBS (−) and centrifuged again at 200×g for five minutes, and the supernatant was removed. PBS (−) was added thereto, and the cell concentration was measured with a cell counter, and then the concentration was adjusted to 1.5×10^5 cells/mL. The cells were added dropwise at 0.1 mL/well to a COC film bottom 96 well plate that had been soaked with 1% BSA overnight, and centrifuged at 120×g for one minute to precipitate the cells on a well bottom surface. Subsequently, the sample was irradiated with UV light from the well bottom surface side for 10 minutes using a UV-LED (LED 365-SPT, Optocode, λp=365 nm, about 17 mW/cm^2). As a comparison, a sample not irradiated with UV light was allowed to stand for 10 minutes. The cell suspension was collected from the wells, and PBS was added thereto to adjust the volume to 0.8 mL. […]

## MeNPOC-biotin-sulfo-NHS ester sodium salt
  fluorescence intensity (adsorption of Alexa Fluor 488 labeled streptavidin): fluorescence intensity changed depending on presence or absence of UV irradiation

From patent US20220170859A1, “PARTICLE LABELING REAGENT, PARTICLE DYEING METHOD, AND MICROSCOPIC SYSTEM” (SONY GROUP CORPORATION, priority 2019, published 2022)
